Results from ChEMBL document CHEMBL5465560, “Selectivity Literature for EUbOPEN Chemogenomic Library” (2024).
Values belong to the compound of their own block, whether it stands above or below them.

Columns and labels:
[1] = target: T1, Serine/threonine-protein kinase PLK4 (Homo sapiens) (UniProt O00444); test: Selectivity interaction (KinomeScan (DiscoverX)) EUB0000666a PLK4; conditions: at 10 µM
T1 sequence (whole entry): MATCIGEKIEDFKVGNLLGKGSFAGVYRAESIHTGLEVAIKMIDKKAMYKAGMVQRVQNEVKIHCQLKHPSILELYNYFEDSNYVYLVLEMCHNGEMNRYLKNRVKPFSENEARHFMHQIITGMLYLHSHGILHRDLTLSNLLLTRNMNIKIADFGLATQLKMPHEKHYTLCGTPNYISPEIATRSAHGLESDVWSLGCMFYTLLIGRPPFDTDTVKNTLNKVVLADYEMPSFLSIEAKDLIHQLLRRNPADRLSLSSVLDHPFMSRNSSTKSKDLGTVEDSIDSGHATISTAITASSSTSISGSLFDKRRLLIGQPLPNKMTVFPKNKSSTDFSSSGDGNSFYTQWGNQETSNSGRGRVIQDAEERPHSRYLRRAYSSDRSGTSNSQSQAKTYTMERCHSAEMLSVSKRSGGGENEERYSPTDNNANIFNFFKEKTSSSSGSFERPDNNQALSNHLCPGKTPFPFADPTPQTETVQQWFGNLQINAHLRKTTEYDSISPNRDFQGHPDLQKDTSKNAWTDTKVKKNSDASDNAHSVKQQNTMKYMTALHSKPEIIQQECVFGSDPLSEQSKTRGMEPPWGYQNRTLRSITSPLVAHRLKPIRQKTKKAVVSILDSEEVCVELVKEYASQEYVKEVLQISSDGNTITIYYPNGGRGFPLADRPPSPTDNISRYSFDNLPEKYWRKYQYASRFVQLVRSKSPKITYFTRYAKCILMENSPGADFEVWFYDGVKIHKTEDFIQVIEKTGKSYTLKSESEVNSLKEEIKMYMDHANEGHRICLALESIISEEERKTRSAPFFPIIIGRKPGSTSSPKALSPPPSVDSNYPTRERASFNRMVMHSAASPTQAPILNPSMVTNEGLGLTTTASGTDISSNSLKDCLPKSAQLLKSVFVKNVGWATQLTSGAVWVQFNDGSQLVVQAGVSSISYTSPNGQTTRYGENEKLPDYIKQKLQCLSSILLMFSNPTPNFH

[2] = target: T2, Inhibitor of nuclear factor kappa-B kinase subunit epsilon (Homo sapiens) (UniProt Q14164); conditions: at 1 µM
T2 sequence (whole entry): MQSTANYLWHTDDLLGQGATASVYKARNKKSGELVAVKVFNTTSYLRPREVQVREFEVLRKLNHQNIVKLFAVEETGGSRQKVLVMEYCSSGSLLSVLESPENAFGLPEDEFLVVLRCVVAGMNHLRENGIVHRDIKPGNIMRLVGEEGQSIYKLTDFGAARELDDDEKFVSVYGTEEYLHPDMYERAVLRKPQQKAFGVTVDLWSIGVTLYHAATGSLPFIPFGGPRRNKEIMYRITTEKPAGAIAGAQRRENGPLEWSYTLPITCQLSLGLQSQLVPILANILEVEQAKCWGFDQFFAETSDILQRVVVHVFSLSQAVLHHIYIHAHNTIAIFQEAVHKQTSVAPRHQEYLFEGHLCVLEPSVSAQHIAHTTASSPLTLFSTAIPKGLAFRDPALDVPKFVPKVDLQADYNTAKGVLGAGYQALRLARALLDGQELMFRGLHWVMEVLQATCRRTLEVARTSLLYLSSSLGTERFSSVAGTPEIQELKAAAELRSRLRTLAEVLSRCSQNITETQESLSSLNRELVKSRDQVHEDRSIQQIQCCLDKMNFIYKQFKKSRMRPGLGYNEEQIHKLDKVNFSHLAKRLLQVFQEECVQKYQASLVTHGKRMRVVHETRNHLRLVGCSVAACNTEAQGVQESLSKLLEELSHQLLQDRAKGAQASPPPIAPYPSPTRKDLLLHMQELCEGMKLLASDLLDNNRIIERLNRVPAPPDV

[3] = target: Proto-oncogene tyrosine-protein kinase ROS (Homo sapiens) (UniProt P08922); test: Selectivity interaction (KinomeScan (DiscoverX)) EUB0000695a ROS1; conditions: at 100 nM
[4] = target: Phosphatidylinositol 4-phosphate 5-kinase type-1 alpha (Homo sapiens) (UniProt Q99755); test: Selectivity interaction (KinomeScan (DiscoverX)) EUB0000655a PIP5K1A; conditions: at 10 µM
[5] = target: LIM domain kinase 2 (Homo sapiens) (UniProt P53671); test: Selectivity interaction (KinomeScan (DiscoverX)) EUB0000045b LIMK2
[6] = target: Calcium/calmodulin-dependent protein kinase type II subunit alpha (Homo sapiens, UniProt Q9UQM7); test: Selectivity interaction (KinomeScan (DiscoverX)) EUB0000229b CAMK2A; conditions: at 10 µM
[7] = target: T3, Tyrosine-protein kinase ZAP-70 (Homo sapiens) (UniProt P43403); conditions: at 10 µM
T3 sequence (whole entry): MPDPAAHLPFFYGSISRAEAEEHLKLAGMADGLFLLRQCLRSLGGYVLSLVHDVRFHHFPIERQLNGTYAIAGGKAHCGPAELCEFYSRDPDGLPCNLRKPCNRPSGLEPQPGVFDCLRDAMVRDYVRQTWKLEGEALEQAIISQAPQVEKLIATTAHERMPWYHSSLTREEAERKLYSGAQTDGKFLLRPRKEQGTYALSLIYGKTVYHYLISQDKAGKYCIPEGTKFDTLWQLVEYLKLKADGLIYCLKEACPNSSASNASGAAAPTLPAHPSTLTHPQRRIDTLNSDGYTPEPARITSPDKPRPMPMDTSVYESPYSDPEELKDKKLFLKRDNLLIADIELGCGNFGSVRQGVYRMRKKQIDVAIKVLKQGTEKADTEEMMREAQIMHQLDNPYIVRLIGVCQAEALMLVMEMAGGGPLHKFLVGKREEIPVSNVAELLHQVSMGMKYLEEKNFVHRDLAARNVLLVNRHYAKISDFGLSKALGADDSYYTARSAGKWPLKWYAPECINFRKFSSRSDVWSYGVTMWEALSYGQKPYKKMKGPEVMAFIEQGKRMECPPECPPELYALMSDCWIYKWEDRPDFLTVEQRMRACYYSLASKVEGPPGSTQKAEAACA

Chain of LIM domain kinase 2 (Homo sapiens) (P53671 whole entry, looked up, the tested form may be a part): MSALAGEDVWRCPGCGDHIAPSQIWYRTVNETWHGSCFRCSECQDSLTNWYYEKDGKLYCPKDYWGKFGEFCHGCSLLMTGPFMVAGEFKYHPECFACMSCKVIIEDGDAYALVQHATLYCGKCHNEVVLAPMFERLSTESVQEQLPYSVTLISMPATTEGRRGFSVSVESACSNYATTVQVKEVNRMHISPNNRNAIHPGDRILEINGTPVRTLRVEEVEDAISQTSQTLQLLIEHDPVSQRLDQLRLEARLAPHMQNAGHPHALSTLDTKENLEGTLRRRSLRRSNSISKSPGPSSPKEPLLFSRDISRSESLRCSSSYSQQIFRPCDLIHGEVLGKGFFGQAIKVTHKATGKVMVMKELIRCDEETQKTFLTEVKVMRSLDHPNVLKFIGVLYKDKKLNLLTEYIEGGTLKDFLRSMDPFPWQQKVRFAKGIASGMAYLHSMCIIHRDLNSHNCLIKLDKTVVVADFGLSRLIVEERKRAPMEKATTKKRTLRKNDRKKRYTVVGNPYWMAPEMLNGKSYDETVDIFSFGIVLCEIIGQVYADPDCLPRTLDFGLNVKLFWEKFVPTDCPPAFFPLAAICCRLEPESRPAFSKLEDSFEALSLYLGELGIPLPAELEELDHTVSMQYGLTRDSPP
Chain of Proto-oncogene tyrosine-protein kinase ROS (Homo sapiens) (P08922 whole entry): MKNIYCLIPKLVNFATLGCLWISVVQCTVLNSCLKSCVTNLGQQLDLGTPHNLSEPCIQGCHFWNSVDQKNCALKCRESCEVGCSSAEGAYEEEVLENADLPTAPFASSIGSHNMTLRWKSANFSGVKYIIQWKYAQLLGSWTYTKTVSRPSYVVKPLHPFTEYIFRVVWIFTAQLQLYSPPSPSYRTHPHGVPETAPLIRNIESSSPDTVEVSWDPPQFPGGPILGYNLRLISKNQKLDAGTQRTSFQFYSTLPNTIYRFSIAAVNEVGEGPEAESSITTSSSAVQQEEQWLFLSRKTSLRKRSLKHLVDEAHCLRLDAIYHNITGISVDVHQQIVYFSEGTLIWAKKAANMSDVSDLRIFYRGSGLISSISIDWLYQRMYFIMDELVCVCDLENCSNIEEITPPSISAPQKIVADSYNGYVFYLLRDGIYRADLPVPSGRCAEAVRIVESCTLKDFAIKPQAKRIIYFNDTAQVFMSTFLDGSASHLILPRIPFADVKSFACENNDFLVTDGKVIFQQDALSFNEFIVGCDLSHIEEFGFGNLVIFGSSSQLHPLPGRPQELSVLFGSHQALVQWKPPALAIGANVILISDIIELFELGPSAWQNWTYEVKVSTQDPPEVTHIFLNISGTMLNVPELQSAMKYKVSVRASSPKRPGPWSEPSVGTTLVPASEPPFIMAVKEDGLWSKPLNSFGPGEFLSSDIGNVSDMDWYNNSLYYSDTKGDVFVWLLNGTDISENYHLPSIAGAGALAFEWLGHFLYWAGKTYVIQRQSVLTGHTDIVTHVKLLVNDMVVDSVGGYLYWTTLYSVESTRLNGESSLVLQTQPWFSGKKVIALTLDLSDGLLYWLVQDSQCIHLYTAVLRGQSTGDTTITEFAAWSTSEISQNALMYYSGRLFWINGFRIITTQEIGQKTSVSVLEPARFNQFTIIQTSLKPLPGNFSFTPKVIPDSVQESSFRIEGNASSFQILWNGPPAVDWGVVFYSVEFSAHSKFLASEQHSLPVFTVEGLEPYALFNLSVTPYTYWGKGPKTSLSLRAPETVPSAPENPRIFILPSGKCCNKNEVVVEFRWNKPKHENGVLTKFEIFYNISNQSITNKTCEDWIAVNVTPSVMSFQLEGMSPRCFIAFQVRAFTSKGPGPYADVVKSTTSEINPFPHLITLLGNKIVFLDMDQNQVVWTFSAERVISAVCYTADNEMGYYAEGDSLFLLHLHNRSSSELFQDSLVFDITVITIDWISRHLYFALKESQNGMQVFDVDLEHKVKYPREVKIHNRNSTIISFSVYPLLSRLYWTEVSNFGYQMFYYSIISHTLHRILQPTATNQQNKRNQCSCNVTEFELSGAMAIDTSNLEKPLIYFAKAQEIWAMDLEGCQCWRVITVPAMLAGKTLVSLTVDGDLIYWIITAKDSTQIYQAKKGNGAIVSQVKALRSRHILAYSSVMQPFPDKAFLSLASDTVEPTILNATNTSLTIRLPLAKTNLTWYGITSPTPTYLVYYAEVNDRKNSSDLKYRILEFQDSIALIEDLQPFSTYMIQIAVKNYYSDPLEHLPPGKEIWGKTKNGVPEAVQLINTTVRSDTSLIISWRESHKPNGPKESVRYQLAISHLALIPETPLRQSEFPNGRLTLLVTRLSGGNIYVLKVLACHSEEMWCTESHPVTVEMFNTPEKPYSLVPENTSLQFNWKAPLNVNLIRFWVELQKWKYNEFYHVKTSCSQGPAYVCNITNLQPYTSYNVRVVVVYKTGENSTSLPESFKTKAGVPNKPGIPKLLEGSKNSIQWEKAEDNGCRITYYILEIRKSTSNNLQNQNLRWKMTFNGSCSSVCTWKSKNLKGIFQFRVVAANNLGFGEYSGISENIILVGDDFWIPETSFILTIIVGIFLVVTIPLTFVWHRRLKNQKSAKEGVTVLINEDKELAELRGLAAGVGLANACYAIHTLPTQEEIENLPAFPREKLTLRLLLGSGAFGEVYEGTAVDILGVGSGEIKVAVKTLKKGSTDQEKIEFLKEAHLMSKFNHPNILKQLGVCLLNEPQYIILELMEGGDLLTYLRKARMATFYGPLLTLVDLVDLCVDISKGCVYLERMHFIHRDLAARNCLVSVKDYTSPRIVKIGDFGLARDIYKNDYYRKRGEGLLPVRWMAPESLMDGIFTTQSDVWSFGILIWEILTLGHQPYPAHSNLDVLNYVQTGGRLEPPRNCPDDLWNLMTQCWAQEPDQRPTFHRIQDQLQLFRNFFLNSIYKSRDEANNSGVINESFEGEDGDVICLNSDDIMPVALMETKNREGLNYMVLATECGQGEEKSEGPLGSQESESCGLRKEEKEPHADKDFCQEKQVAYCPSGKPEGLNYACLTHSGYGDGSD
Chain of Phosphatidylinositol 4-phosphate 5-kinase type-1 alpha (Homo sapiens) (Q99755 whole entry, the tested form may be a part): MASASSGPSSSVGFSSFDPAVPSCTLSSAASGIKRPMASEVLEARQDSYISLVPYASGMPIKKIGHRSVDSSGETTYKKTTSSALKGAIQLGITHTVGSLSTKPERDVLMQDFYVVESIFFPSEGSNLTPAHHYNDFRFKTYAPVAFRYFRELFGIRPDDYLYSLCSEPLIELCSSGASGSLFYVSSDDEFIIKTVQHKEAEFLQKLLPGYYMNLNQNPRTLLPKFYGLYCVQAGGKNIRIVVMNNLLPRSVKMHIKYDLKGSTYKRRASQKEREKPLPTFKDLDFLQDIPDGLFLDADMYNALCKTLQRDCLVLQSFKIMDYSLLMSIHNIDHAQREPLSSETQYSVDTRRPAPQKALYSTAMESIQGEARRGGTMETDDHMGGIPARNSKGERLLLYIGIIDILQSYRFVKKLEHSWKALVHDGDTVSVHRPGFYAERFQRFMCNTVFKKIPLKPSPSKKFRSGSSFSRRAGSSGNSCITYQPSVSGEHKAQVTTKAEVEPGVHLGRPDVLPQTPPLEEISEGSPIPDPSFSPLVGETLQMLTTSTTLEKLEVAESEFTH
Chain of Calcium/calmodulin-dependent protein kinase type II subunit alpha (Q9UQM7 whole entry): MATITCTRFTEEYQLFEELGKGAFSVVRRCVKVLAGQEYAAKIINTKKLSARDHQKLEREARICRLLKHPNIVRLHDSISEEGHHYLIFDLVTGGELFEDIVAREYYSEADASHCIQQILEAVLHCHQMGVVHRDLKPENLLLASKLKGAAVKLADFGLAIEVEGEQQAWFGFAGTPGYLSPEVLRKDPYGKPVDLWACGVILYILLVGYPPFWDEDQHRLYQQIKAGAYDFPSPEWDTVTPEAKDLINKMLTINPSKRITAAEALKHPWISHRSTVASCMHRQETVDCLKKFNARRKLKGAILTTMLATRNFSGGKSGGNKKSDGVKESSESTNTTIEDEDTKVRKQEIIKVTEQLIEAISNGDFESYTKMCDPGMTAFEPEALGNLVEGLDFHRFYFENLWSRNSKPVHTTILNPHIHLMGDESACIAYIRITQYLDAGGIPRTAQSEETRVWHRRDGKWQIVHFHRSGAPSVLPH

Structure (SMILES): O=C(NOC[C@H](O)CO)c1ccc(F)c(F)c1Nc1ccc(I)cc1F
% of control [1]: 86%

% of inhibition [2]: 11%
Structure (SMILES): Cc1ccc(-c2ccc3c(ccc4sc5c(c43)NC[C@@H](C)NC5=O)n2)cn1

Structure (SMILES): Cc1cc(F)c(C(=O)Nc2cccc(-c3nncn3C(C)C)n2)cc1-n1cnc(C2CC2)c1
% of control [3]: 79%

Structure (SMILES): CN(C)CCOc1ccc(-c2nc(-c3ccncc3)c(-c3ccc4c(c3)CC/C4=N\O)[nH]2)cc1
% of control [4]: 100%

Structure (SMILES): C=CC(=O)Nc1cc(-n2c(=O)ccc3cnc4ccc(-c5ccc(NS(C)(=O)=O)cc5)cc4c32)ccc1C
% of control ([5]; at 1 µM): 92% | % of control ([5]; at 10 µM): 100%

Structure (SMILES): COc1cc(N(C)c2ccnc3ccc(C(F)(F)F)cc23)cc(OC)c1OC
% binding [6]: 77%

Structure (SMILES): Cc1cc([C@@H](C)Nc2ccccc2C(=O)O)c2nc(N3CCOCC3)cc(=O)n2c1 [AZD-6482]
% of control [7]: 100%
